# Measurements from patent US9097673B2, “Processes and kits for determining multi-drug resistance of cells” (ENZO LIFE SCIENCES, INC., priority 2010, dated 2015).
# Key:
# Hep G2 cells = assay: Dye uptake flow cytometry MDR assay; assay type: cell-based, human; parameters: key: Kolmogorov-Smirnov D statistic comparing fluorescence distributions; settings: HepG2, dye uptake
# Method: Cells were grown on tissue culture dishes and on the day of assay were trypsinized and washed twice with warm (37° C.) phosphate-buffered saline (PBS). Post-wash, the cells were re-suspended in warm phenol red indicator-free medium at a density of 1×10^6/ml. For each detection set, sixteen tubes (5 samples in triplicates plus non-stained control for background fluorescence) in numbered tubes each containing 5×10^5/cells (0.5 ml) were prepared. […] After incubation for 5 min at 37° C., 0.25 ml of warm medium with Fluo-8™ AM probe (5 μM final concentration) or Rhod-4™ AM probe (2 μM final concentration) was added to each tube excluding non-stained control that receives plain medium and cells were incubated for 30 min at 37° C. and analyzed immediately by flow cytometry. In the second set of the tubes, the reaction was stopped by rapid centrifugation (1 min) at relatively low speed (200×g). After wash with ice-cold PBS and discarding the supernatant, cells were re-suspended in 0.5 ml of ice-cold medium and kept on ice until flow cytometry analysis. The third set of cells simply was spun down (1 min, 200×g) to remove the excess of the probe, resuspended in ice-cold medium and kept on ice until flow cytometry analysis.
# Flow cytometry experiments were performed using a FACS Calibur benchtop flow cytometer (BD Biosciences) equipped with a blue (488 nm) laser, and the signals were registered in the FITC (530/30 filter), PE (585/42 filter) and PerCP (670 LP filter) channels. Fluo-8™ dye fluorescence was measured in the FL1 channel, and Rhod-4™ dye fluorescence—in the FL2 channel. Flow cytometry data were analyzed by comparison of median fluorescence or using Kolmogorov-Smirnov statistics [Young, J Histochem Cytochem 25:935-941 (1977)] or by calculating MAF values (MDR Activity Factor) using the following formula: MAF=100*((MFIinh−MFI0)/MFIinh), where MFIinh and MFI0 are mean fluorescence intensity values measured in the presence and absence of inhibitor [Hollo et al., Biochem Piophys Acta. 1191:384-388 (1994)].
# Both human ileocecal colorectal carcinoma cell line HCT-8 (reported to over-express P-gp and, to a lesser extent, MRP [Hunter et al., Br J Cancer. 64:437-444 (1991); Collington et al., Biochem Pharmacol 44:417-424 (1992)] and hepatocellular carcinoma Hep G2 (reported to over-express MRP [Roelofsen et al., Gastroenterology 112:511-521 (1997), Cantz et al., Am J Physiol Gastrointest Liver Physiol. 278:G522-G531 (2000)] were obtained from ATCC. HCT-8 cells were routinely cultured in RPMI-1640 Medium with 2 mM L-glutamine, 10 mM HEPES, 1 mM sodium piruvate, 4.5 g/L glucose, 1.5 g/L sodium bicarbonate (ATCC), supplemented with 10% horse serum (ATCC) and 100 U/ml penicillin, 100 ug/ml streptomycin (Sigma-Aldrich, St. Louis, Mo.). Hep G2 cells were routinely cultured in Eagle's Minimum Essential Medium with low glucose (ATCC), supplemented with 10% heat inactivated fetal bovine serum (ATCC) and 100 U/ml penicillin, 100 ug/ml streptomycin (Sigma-Aldrich, St. Louis, Mo.). Cell cultures were maintained in a humidified incubator at 37° C., with 5% CO2 atmosphere. Stock solutions of the probes and inhibitors were prepared, as described in Examples 2 and 3. Cells were grown in tissue culture dishes and on the day of assay were treated according to a dye uptake protocol and analyzed by flow cytometry, as described in Example 3.
# CHO K1 cell line = assay: Dye efflux flow cytometry MDR assay; assay type: cell-based, hamster; parameters: key to D-value, Verapamil / D-value, Novobiocin: KS D value, 0 to 1; negative if control brighter than sample; settings: for D-value, +4° C.: kept on ice without inhibitor
# Description: (§1) Kolmogorov-Smirnov statistics measures the difference between two distribution functions and generates a D value ranging between 0 and 1.0, with higher values indicating a greater difference between the distribution functions. The D value generated by the KS statistics was modified by ascribing a negative value if the fluorescence of a negative control (no inhibitor) was brighter than the fluorescence of the sample with inhibitor. The method was one of those recommended by the First International MDR1 Methods Detection Workshop (St. Jude Children's Research Hospital, Memphis, Tenn.).
# (§2) Cells were grown in tissue culture dishes and on the day of assay they were trypsinized and washed twice with ice-cold PBS. Post-wash, the cells were re-suspended in cold phenol red indicator-free medium at a density of 1×10^6/ml. For each detection set, eighteen tubes (6 tubes without inhibitor and 3 tubes for each inhibitor tested, in triplicates) each containing 2.5-5×10^5/cells were prepared. Cells were centrifuged at 200×g for 5 min, and after discarding supernatant, re-suspended at 1×10^6/ml in ice-cold indicator-free medium containing Fluo-8™ AM or Rhod-4™ AM probes. Additionally, an aliquot of non-stained cells was prepared for background fluorescence measurements. Cells were incubated with the probe(s) on ice for 60 min, than centrifuged at 200×g for 5 min. After discarding the supernatant, cells were either washed twice with PBS or simply were spun down to remove the excess of the probe and resuspended at 5×10^5 cells/sample in 0.5 ml of following solutions:
# (§3) 1. warm (37° C.) indicator-free medium containing vehicle only (3 tubes)
# (§4) 2. warm (37° C.) indicator-free medium containing inhibitor (3 tubes for each inhibitor tested)
# (§5) 3. ice-cold indicator-free medium (3 tubes)
# (§6) Tube sets 1 and 2 were immediately transferred to a water bath (37° C.) and incubated for 90 min. Tube set 3 was kept on ice. Post incubation, 4 ml of ice-cold indicator-free medium was added per tube, tubes were centrifuged at 200×g for 5 min, supernatant was discarded, and cell pellet was re-suspended in the cold indicator-free medium and centrifuged again. Finally, cells were re-suspended in 0.5 ml of cold indicator-free medium and maintained on ice until analysis. Alternatively, cells were analyzed without washing. Flow cytometry experiments were performed as described in Example 3.
# HeLa cell line = assay: Dye efflux flow cytometry MDR assay; assay type: cell-based, human; parameters: key to D-value, Verapamil / D-value, Novobiocin: KS D value, 0 to 1; negative if control brighter than sample; settings: for D-value, +4° C.: kept on ice without inhibitor
# Description: as §1, §2, §3, §4, §5, §6
# [1] = CHO K1, dye efflux, representative experiment (Table 9)
# [2] = Fluo-8 AM probe, dye efflux, CHO K1, No Wash
# [3] = Fluo-8 AM probe, dye efflux, CHO K1, Wash
# [4] = representative experiment (Table 9)
structure (smiles),measurement,setting,value
CC(=O)OCOC(=O)CN(CC(=O)OCOC(C)=O)c1ccccc1OCCOc1cc(-c2c3ccc(=O)cc-3oc3cc(OCOC(C)=O)ccc23)ccc1N(CC(=O)OCOC(C)=O)CC(=O)OCOC(C)=O [Fluo-8 ™ AM],"D-value, CyclosporinA",Hep G2 cells,0.28
same,"D-value, MK-571",Hep G2 cells,0.34
same,"D-value, Novobiocin",Hep G2 cells,0.13
same,"D-value, Verapamil",Hep G2 cells,0
same,"D-value, 4° C.","CHO K1 cell line; CHO K1, dye efflux, kept on ice without inhibitor (Table 9)",0.72
same,"D-value, Cyclosporine A",CHO K1 cell line; [1],0.55
same,"D-value, Novobiocin",CHO K1 cell line; [1],0.70
same,"D-value, Probenecid",CHO K1 cell line; [1],0.30
same,"D-value, Verapamil",CHO K1 cell line; [1],0.28
same,"D-value, Cyclosporin A",CHO K1 cell line; [2],0.8
same,"D-value, Novobiocin",CHO K1 cell line; [2],0.7
same,"D-value, Probenecid",CHO K1 cell line; [2],0.19
same,"D-value, Verapamil",CHO K1 cell line; [2],0.21
same,"D-value, +4° C.",CHO K1 cell line; [2],0.78
same,"D-value, Cyclosporin A",CHO K1 cell line; [3],0.62
same,"D-value, Novobiocin",CHO K1 cell line; [3],0.79
same,"D-value, Probenecid",CHO K1 cell line; [3],0.23
same,"D-value, Verapamil",CHO K1 cell line; [3],0.34
same,"D-value, +4° C.",CHO K1 cell line; [3],0.76
same,"D-value, Cyclosporin A","HeLa cell line; Fluo-8 AM probe, No Wash",0.12
same,"D-value, Novobiocin","HeLa cell line; Fluo-8 AM probe, No Wash",0.13
same,"D-value, Probenecid","HeLa cell line; Fluo-8 AM probe, No Wash",0.13
same,"D-value, Verapamil","HeLa cell line; Fluo-8 AM probe, No Wash",0.076
same,"D-value, +4° C.","HeLa cell line; Fluo-8 AM probe, No Wash",0.15
same,"D-value, Cyclosporin A","HeLa cell line; Fluo-8 AM probe, Wash",0.14
same,"D-value, Novobiocin","HeLa cell line; Fluo-8 AM probe, Wash",0.16
same,"D-value, Probenecid","HeLa cell line; Fluo-8 AM probe, Wash",0.14
same,"D-value, Verapamil","HeLa cell line; Fluo-8 AM probe, Wash",0.14
same,"D-value, +4° C.","HeLa cell line; Fluo-8 AM probe, Wash",0.14
same,"D-value, 4° C.",HeLa cell line; kept on ice without inhibitor (Table 9),0.83
same,"D-value, Cyclosporine A",HeLa cell line; [4],0.13
same,"D-value, Novobiocin",HeLa cell line; [4],0.15
same,"D-value, Probenecid",HeLa cell line; [4],0.16
same,"D-value, Verapamil",HeLa cell line; [4],0.15
